Source: paper PMC8171317, “Total synthesis, isolation, surfactant properties, and biological evaluation of ananatosides and related macrodilactone-containing rhamnolipids” (Chemical Science, 2021)
Where two headings read alike, the source gives them in different places. Marks after values point to notes of the source that are not given here.

Columns and labels:
sheep blood erythrocytes = assay: Hemolytic activity; assay type: cell-based
Method: Owing to their surfactant properties, glycolipids can break the membrane of red blood cells causing hemolytic activity.[18] To understand if the cytotoxicity of macrolactones 1, 4, 5β, and 6β was due to their surface tension activity, we evaluated the hemolytic potential of synthetic glycolipids 1–6 against sheep erythrocytes (Table 5). […] The non-cytotoxic rhamnolipid 3 was also found to exert a weak hemolytic activity (HC50 = 65 ± 6 μM). […]
Hemolytic Activity. The hemolytic activity of the synthetic surfactants was evaluated as previously described with small modifications.10 Defibrinated sheep blood (Oxoid) was centri fuged at 1000 × g for 5 min. The pellet containing erythrocytes was washed once and suspended in 1X PBS to obtain a 1% erythrocytes suspension. All samples were suspended in DMSO/PBS (5:1 v/v) and serially diluted in a 96 -well plate to obtain a range of co ncentrations from 1 mM to 7.8 µM.
The erythrocytes suspension (160 µL) was added to 40 µL of samples to obtain final concentrations […]
ranging between 200 µM and 1.56 µM. Triton X-100 was used as a positive hemolysis control.
The plate was then incubated at 37 °C with agitation at 150 rpm for 1 h and centrifuged at 1500 × g for 5 min. The supernatant was transferred in an empty plate and absorbance was measured at 540 nm using a Cytation3 microplate reader (Biotek). HC50 was calculated in comparison with the positive control. The experiment was performed in triplicate and repeated three times. […]

[1] = Cytotoxicity, resazurin assay; assay type: cell-based, human; conditions: human, max tested 200 μM
Method: (§1) As the anticancer potential of microbial rhamnolipids has previously been reported,[16] we next sought to evaluate the in vitro cytotoxicity of our synthetic and natural glycolipids 1–6 against cancerous cell lines, i.e., human lung carcinoma (A549) and colorectal adenocarcinoma (DLD-1). The compounds were also tested against human normal skin fibroblasts (WS1) to estimate their selectivity towards cancer cells.
(§2) 4. Experimental Procedures for Biological Evaluation and Surfactant Properties. […]
(§3) Cell Culture. Human lung carcinoma (A549), human colorectal adenocarcinoma (DLD-1), and human normal skin fibroblasts (WS1) cell lines were obtained from the American Type Culture Collection (ATCC). All cell lines were cultured in minimum essential medium containing Earle’s […]
(§4) salts and L-glutamine (Mediatech Cellgro, VA), to which were added 10% foetal bovine serum (Hyclone), vitamins (1×), penicillin (100 IU•mL-1), streptomycin (100 µg•mL−1), essential amino acids (1×), and sodium pyruvate (1×) (Mediatech Cellgro, VA). Cells were kept at 37 °C in a humidified environment containing 5% CO2.
(§5) Cytotoxicity Assay. Exponentially growing A549, DLD-1 or WS1 cells were plated in 96-well microplates (Costar, Corning Inc.) at a density of 5 × 10^3 cells per well in 100 µL of culture medium and were allowed to adhere for 16 h prior treatment. Increasing concentrations of each compound in biotech DMSO (Sigma-Aldrich) were then added (100 µL per well) and the cells were incubated for 48 h. The final concentration of DMSO in the culture medium was maintained at 0.5% (v/v) to avoid solvent toxicity. Cytotoxicity was assessed using resazurin9 on an automated 96-well Fluoroskan Ascent F1TM plate reader (Labsystems) using excitation and emission wavelengths of 530 and 590 nm, respectively. Fluorescence was proportional to the cellular metabolic activity in each well. Survival percentage was defined as the fluorescence in experimental wells as compared to that in control wells after subtraction of blank values. Each experiment was carried out three times in triplicate. IC50 results were expressed as means ± standard deviation. […]

[2] = Cytotoxicity, resazurin assay, summary over cell lines; assay type: cell-based; conditions: human, DLD-1 and WS1 cells (summary over the three lines); A549, DLD-1 and WS1; read-out: Cytotoxicity IC50 against human cell lines
Method: as §1, §2, §3, §4, §5

[3] = Surface tension and CMC, Fisher tensiometer, du Noüy ring method; assay type: physicochemical; parameters: γ CMC (surface tension at CMC): unit not given here; conditions: pH 7.0; synthetic samples
Method: Biosurfactants are molecules that can associate with each other leading to the formation of micelles. They can also interact with surfaces between phases of different polarity such as the air/water or oil/water interface.[77] To gain quantitative insights into the surface-active properties of microbial glycolipids, the surface tensions at CMC (γCMC) of ananatoside A (1) and ananatoside B (2) were measured using a Fisher tensiometer by means of the du Noüy ring method. The CMC, referring to the concentration of surfactant at which micelles start to form, was determined from a plot of surface tension again each concentration. […] Consequently, the surface tension measurements were performed quickly to avoid the precipitation of ananatoside A (1) into the aqueous medium.

[4] = Dynamic light scattering (Zetasizer), hydrodynamic diameter of micelles; assay type: physicochemical; conditions: pH 7.0; concentration 80 μM
Excerpt: In parallel to these experiments, we took advantage of dynamic light scattering (DLS) to evaluate the hydrodynamic diameter of biosurfactant micelles formed at concentrations above the CMC (Table 4).[79] DLS considers the intensity of light scattered by spherical particles, which prevents its application for highly polydisperse and non-spherical colloidal systems. […] Once again, due to its hydrophobicity, ananatoside A (1) was too polydisperse for conducting a proper distribution analysis, showing a Z-average value above 800 nm, which meant that the particles were aggregated in water at the tested concentration. Similar results were obtained for ananatoside A (1) when the DLS experiments were conducted in DMSO as the solvent.

[5] = Emulsifying activity against hydrocarbon contaminants; assay type: physicochemical; conditions: cyclohexane and kerosene
Method: Therefore, the emulsifying properties of microbial biosurfactants 1–3 were evaluated against light as well as heavy hydrocarbon contaminants such as cyclohexane and kerosene, respectively (see Fig. S7 ^†).

tomato leaf disks = assay: Extracellular ROS production, luminol chemiluminescence; assay type: cell-based, Solanum lycopersicum; conditions: 100 μM, monitored over 720 min
Excerpt: Bacterial rhamnolipids, such as compound 3, trigger the plant immune system, which can ultimately lead to plant protection against diseases caused by fungal and bacterial pathogens.[23] As ananatoside A (1) and ananatoside B (2) share structural similarities with rhamnolipid 3 and because they have been isolated from P. ananatis cultures, an emerging plant pathogen causing important agricultural damage worldwide,[81] we wanted to investigate whether these bacterial glycolipids, along with our unprecedented series of synthetic rhamnolactones, could be perceived by the plant immune system. We relied on measuring the extracellular content of reactive oxygen species (ROS) produced by tomato plants (Solanum lycopersicum) following treatment with the synthetic compounds, as an early and important marker of plant immunity.[20,22,82] Tomato leaves were challenged with synthetic glycolipids 1–6 at concentrations of 100 μM and the production of ROS was monitored over a 720 min time frame (Fig. 5).
Fig. 5 Extracellular reactive oxygen species (ROS) production following treatment of tomato leaf disks with ananatoside A (1), ananatoside B (2), RhaC10C10 (3), and related macrodilactone-containing rhamnolipids (4–6). Production of ROS was measured in tomato leaf disks following treatment at 100 μM with synthetic glycolipids (1–6). MeOH (0.5%) was used as a control. ROS production was measured using the chemiluminescence of luminol and photon counts were expressed as relative luminescence units (RLUs). Data are mean ± SEM (n = 6). Experiments were independently realized three times with similar results. […]
Plant Material and Growth Conditions. Tomato plants (Solanum lycopersicum L var. Ailsa craig, Scotland) were grown on soil in growth chamber with white fluorescent light [200 μmol•(m−2 s−1)], under 16 h/8 h light/dark regime, 60% relative humidity , and a temperature of 24 /20 °C during four weeks prior treatment. Arabidopsis thaliana plants (ecotype Col -0) were grown on soil in growth chambers with white fluorescent light (150 μmol m−2 s−1), under 12 h/12 h light/dark regime, 60% relative humidity, and a temperature of 20/20 °C during six weeks prior treatment.
Reactive Oxygen Species (ROS) Production. ROS assays were performed on four-week old tomato plants or six-week old Arabidopsis plants. Briefly, tomato leaf disks of 6 mm diameter or Arabidopsis petiole sections of 5 mm long were cut and placed in a 96-well plate (Optiplate TM-96 white, PerkinElmer) containing 150 µL of distilled H2O and then incubated at rt for 24 h to reduce the wounding response.11 The elicitation solution containing 0.2 µg•mL−1 luminol (A4685-5 g, Sigma), […] (P6782, Sigma) and the tested glycolipids (1, 2, 3, 4, 5α, 5β, 6α or 6β) at 100 μM was prepared. Methanol (0.5%) was used as negative control. Prior elicitation, the incubating distilled H2O was carefully removed from each well, avoiding any tissue damage or desiccation. Then, the elicitation solution (150 µL) was quickly added to each well containing a leaf disk or a petiole. Luminescence (relative light units, RLU) was measured every 4

[6] = parameters: method as in PMID 17105155; conditions: estimated; cited from earlier work
[7] = tested on: human colorectal adenocarcinoma (DLD-1); assay: Cytotoxicity, resazurin assay; assay type: cell-based; conditions: 48 h, max tested 200 μM
Method: as §1, §2, §3, §4, §5

[8] = tested on: human lung carcinoma (A549); assay: Cytotoxicity, resazurin assay; assay type: cell-based; conditions: 48 h, max tested 200 μM
Method: as §1, §2, §3, §4, §5

[9] = tested on: human normal skin fibroblasts (WS1); assay: Cytotoxicity, resazurin assay; assay type: cell-based; conditions: 48 h, max tested 200 μM
Method: as §1, §2, §3, §4, §5

[10] = DLD-1 colorectal adenocarcinoma cells
[11] = sheep blood erythrocytes, 1 h, 37 °C, max tested 200 μM

## Triton X-100 [reference compound]
Sheep blood erythrocytes
  Hemolysis (HC50 in μM) Erythrocytes: c Half maximal inhibitory concentration measured on sheep blood erythrocytes. Triton X-100 was used as a positive control showing an HC50 value of 52 ± 2 μM.

## CCCCCCCC1CC(=O)OC2C(O)C(C)OC(OC(CCCCCCC)CC(=O)O1)C2O (stereo not drawn) [Compound 6β]
[1]; A549 lung carcinoma cells
  IC50 at 48 h: 112 ± 2 µM
[1]; [10]
  IC50 at 48 h: 112 ± 3 µM
[1]; WS1 normal skin fibroblasts
  IC50 at 48 h: 110 ± 1 µM
[2]
  IC50 at 48 h: 50 to 112 µM
Sheep blood erythrocytes; [11]
  Hemolysis (HC50 in μM) Erythrocytes: 12.3 ± 0.5 µM

## CCCCCCCC1CC(=O)OC2C(C)OC(OC(CCCCCCC)CC(=O)O1)C(O)C2O (stereo not shown) [Compound 4]
[1]; A549 lung carcinoma cells
  IC50 at 48 h: 56 ± 2 µM
[1]; [10]
  IC50 at 48 h: 70 ± 10 µM
[1]; WS1 normal skin fibroblasts
  IC50 at 48 h: 57 ± 1 µM
[2]
  IC50 at 48 h: 50 to 112 µM
Sheep blood erythrocytes; [11]
  Hemolysis (HC50 in μM) Erythrocytes: 12.0 ± 0.7 µM

## CCCCCCC[C@H](CC(=O)O)OC(=O)C[C@@H](CCCCCCC)O[C@@H]1O[C@@H](C)[C@H](O)[C@@H](O)[C@H]1O [Compound 3, RhaC10C10]
[3]
  CMC (critical micelle concentration): 58 ± 1 µM
  γ CMC (surface tension at CMC): 30 ± 1
[4]
  Z-Average (hydrodynamic diameter of micelles): 92.1 nm
[5]
  Emulsifying activity: equally able to generate emulsions with cyclohexane and kerosene
[1]; A549 lung carcinoma cells
  IC50 at 48 h: > 200 µM
[1]; [10]
  IC50 at 48 h: > 200 µM
[1]; WS1 normal skin fibroblasts
  IC50 at 48 h: > 200 µM
[2]
  IC50 at 48 h: > 200 µM
Sheep blood erythrocytes; [11]
  Hemolysis (HC50 in μM) Erythrocytes: 65 ± 6 µM
Tomato leaf disks
  Extracellular ROS production: triggered a long-lasting and strong production of ROS
[6]
  pKa: 5.5

## CCCCCCCC1CC(=O)OC2C(O)C(C)OC(OC(CCCCCCC)CC(=O)O1)C2O (stereo not drawn) [Compound 6α]
[7]
  IC50: > 200 µM
[8]
  IC50: > 200 µM
[9]
  IC50: > 200 µM
Sheep blood erythrocytes; [11]
  Hemolysis (HC50 in μM) Erythrocytes: >200 ^d μM

## CCCCCCCC1CC(=O)OC2C(OC(CCCCCCC)CC(=O)O1)OC(C)C(O)C2O (stereo not drawn) [Compound 5α]
[1]; A549 lung carcinoma cells
  IC50 at 48 h: > 200 µM
[1]; [10]
  IC50 at 48 h: > 200 µM
[1]; WS1 normal skin fibroblasts
  IC50 at 48 h: > 200 µM
Sheep blood erythrocytes; [11]
  Hemolysis (HC50 in μM) Erythrocytes: >200 ^d μM
Tomato leaf disks
  Extracellular ROS production: did not show a similar sensing pattern

## CCCCCCCC1CC(=O)OC2C(OC(CCCCCCC)CC(=O)O1)OC(C)C(O)C2O (stereo not drawn) [Compound 5β]
[7]
  IC50: 110 ± 2 µM
[8]
  IC50: 103 ± 7 µM
[9]
  IC50: 105 ± 5 µM
[2]
  IC50 at 48 h: 50 to 112 µM
Sheep blood erythrocytes; [11]
  Hemolysis (HC50 in μM) Erythrocytes: 14 ± 2 µM
Tomato leaf disks
  Extracellular ROS production: induced a strong and long-lasting production of ROS following the initial burst at 200 min

## COc1cc([C@@H]2c3cc4c(cc3[C@@H](O[C@@H]3O[C@@H]5CO[C@@H](C)O[C@H]5[C@H](O)[C@H]3O)[C@H]3COC(=O)[C@H]23)OCO4)cc(OC)c1O [Etoposide, reference compound]
[1]; A549 lung carcinoma cells
  IC50 at 48 h: 1.2 µM
[1]; [10]
  IC50 at 48 h: 27 µM
[1]; WS1 normal skin fibroblasts
  IC50 at 48 h: 34 µM
